The source of these data is paper PMC3261128, “Modulation of phosphofructokinase (PFK) from Setaria cervi, a bovine filarial parasite, by different effectors and its interaction with some antifilarials” (2011).

Format in all cases: biochemical
In experiment [1] the target is T1, Phosphofructokinase (PFK).
T1 construct: native enzyme purified from adult female worms
Nature of the experiment: coupled enzyme assay (NADH oxidation), Ki and Hill plot.

For experiment [2], the target named is T2, rat liver PFK (phosphofructokinase) (Rattus norvegicus, UniProt P30835).
T2 construct: gene Pfkl; native enzyme partially purified from rat liver
T2 sequence (P30835 2-780): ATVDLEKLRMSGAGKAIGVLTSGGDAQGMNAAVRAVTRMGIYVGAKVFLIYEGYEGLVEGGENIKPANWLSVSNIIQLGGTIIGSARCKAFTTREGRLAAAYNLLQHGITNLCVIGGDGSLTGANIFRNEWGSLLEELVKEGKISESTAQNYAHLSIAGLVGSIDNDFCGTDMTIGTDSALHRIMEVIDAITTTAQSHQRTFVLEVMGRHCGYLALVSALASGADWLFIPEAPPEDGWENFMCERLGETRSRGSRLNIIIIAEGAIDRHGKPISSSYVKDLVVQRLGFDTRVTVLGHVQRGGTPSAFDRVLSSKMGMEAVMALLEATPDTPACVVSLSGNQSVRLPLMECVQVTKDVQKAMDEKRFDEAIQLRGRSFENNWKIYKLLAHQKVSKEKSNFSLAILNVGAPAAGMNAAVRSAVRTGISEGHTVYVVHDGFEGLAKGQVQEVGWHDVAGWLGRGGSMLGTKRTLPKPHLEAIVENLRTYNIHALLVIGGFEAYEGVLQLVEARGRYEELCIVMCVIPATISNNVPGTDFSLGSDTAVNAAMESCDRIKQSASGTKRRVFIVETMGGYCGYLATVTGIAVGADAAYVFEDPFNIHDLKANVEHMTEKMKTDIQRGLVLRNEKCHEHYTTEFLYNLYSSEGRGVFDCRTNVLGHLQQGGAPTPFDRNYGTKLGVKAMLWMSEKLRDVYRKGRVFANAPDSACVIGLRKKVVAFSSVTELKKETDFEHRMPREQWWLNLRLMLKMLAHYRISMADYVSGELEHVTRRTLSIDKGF
Described as above. The text has this:
coupled enzyme assay (NADH oxidation), Ki and Hill plot on rat liver PFK (phosphofructokinase) | inhibition of rat liver PFK was of the non-competitive type (Figure 5A) and the Ki value of suramin

Experiment [3] relates to T1, Phosphofructokinase (PFK). To be noted: 5000 µM.

Broadly, the Ki is the dissociation constant of the complex between target and ligand, obtained from inhibition or displacement. Higher therefore signals lower affinity. As to `Cc1ccc(C(=O)Nc2ccc(S(=O)(=O)O)c3cc(S(=O)(=O)O)cc(S(=O)(=O)O)c23)cc1NC(=O)c1cccc(NC(=O)Nc2cccc(C(=O)Nc3cc(C(=O)Nc4ccc(S(=O)(=O)O)c5cc(S(=O)(=O)O)cc(S(=O)(=O)O)c45)ccc3C)c2)c1` [suramin], the Ki was 1.1 ± 0.1 nM in experiment [1] and 40 ± 1 nM in experiment [2].

Turning to `c1ccc([C@H]2CN3CCSC3=N2)cc1` [Levamisole], the “% Residual Activity / 5” value in experiment [3] amounted to 45.
